From PubChem BioAssay (NCI)
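The concentration for 50% growth inhibition is given as GI50. The concentration for full growth arrest is given as TGI.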

How the values were obtained:
Assay in all cases: NCI-60 cell line screen, 384-well format
NCI-H322M lung = system: NCI-H322M lung
MDA-MB-231 breast = system: MDA-MB-231 breast
A498 renal = system: A498 renal
SF-295 CNS = system: SF-295 CNS
SW-620 colon = system: SW-620 colon
MDA-MB-468 breast = system: MDA-MB-468 breast
RXF 393 renal = system: RXF 393 renal
HS 578T breast = system: HS 578T breast
EKVX NSCLC = system: EKVX NSCLC
OVCAR-8 ovarian = system: OVCAR-8 ovarian
UACC-257 melanoma = system: UACC-257 melanoma
OVCAR-4 ovarian = system: OVCAR-4 ovarian
DU-145 prostate = system: DU-145 prostate
NCI-H226 lung = system: NCI-H226 lung
OVCAR-5 ovarian = system: OVCAR-5 ovarian
T-47D breast = system: T-47D breast
HCC-2998 colon = system: HCC-2998 colon
UO-31 renal = system: UO-31 renal
KM12 colon = system: KM12 colon
ACHN renal = system: ACHN renal
RPMI-8226 leukemia = system: RPMI-8226 leukemia
NCI-H460 NSCLC = system: NCI-H460 NSCLC
A549 NSCLC = system: A549 NSCLC
NCI-H23 lung = system: NCI-H23 lung
PC-3 prostate = system: PC-3 prostate
COLO 205 colon = system: COLO 205 colon
MCF7 breast = system: MCF7 breast
SNB-75 CNS = system: SNB-75 CNS
UACC-62 melanoma = system: UACC-62 melanoma

Molecule Cn1cc(-c2cnc3ccc4ccc(CS(=O)(=O)NCc5ccccn5)cc4c(=O)c3c2)cn1 has a GI50 (NCI-H322M lung) of 21.3 µM, a TGI (NCI-H322M lung) of 64.6 µM and a GI50 (MDA-MB-231 breast) of 15.2 µM. For the same molecule, the TGI (MDA-MB-231 breast) was 30.4 µM, the GI50 (A498 renal) was 23.1 µM and the TGI (A498 renal) was greater than 100 µM. It also gave a GI50 (SF-295 CNS) of 13.3 µM, a TGI (SF-295 CNS) of 33.8 µM and a GI50 (SW-620 colon) of 14 µM. It also gave a TGI (SW-620 colon) of 28.8 µM, a GI50 (MDA-MB-468 breast) of 2.79 µM and a TGI (MDA-MB-468 breast) of 7.05 µM. The GI50 (RXF 393 renal) was 13.5 µM, the TGI (RXF 393 renal) was 26.8 µM and the GI50 (HS 578T breast) was 14.4 µM. The TGI (HS 578T breast) was 33.3 µM, the GI50 (EKVX NSCLC) was 17.9 µM and the TGI (EKVX NSCLC) was 35.7 µM. It also gave a GI50 (OVCAR-8 ovarian) of 16.2 µM, a TGI (OVCAR-8 ovarian) of 36.5 µM and a GI50 (UACC-257 melanoma) of 18.3 µM. It also gave a TGI (UACC-257 melanoma) of 32.3 µM, a GI50 (OVCAR-4 ovarian) of 14.9 µM and a TGI (OVCAR-4 ovarian) of 29.6 µM. The GI50 (DU-145 prostate) was 20 µM, the TGI (DU-145 prostate) was 51.2 µM and the GI50 (NCI-H226 lung) was 13.7 µM. It also gave a TGI (NCI-H226 lung) of 30.5 µM, a GI50 (OVCAR-5 ovarian) of 25.4 µM and a TGI (OVCAR-5 ovarian) of 49.3 µM. The GI50 (T-47D breast) was 15.5 µM, the TGI (T-47D breast) was 30.5 µM and the GI50 (HCC-2998 colon) was 15 µM. The TGI (HCC-2998 colon) was 28.7 µM, the GI50 (UO-31 renal) was 35.9 µM and the TGI (UO-31 renal) was greater than 100 µM. For the same molecule, the GI50 (KM12 colon) was 11.4 µM, the TGI (KM12 colon) was 26.6 µM and the GI50 (ACHN renal) was 24.7 µM. The TGI (ACHN renal) was 98.4 µM, the GI50 (RPMI-8226 leukemia) was 5.18 µM and the TGI (RPMI-8226 leukemia) was 17.5 µM. The GI50 (NCI-H460 NSCLC) was 15.1 µM, the TGI (NCI-H460 NSCLC) was 28.9 µM and the GI50 (A549 NSCLC) was 40.4 µM. It also gave a TGI (A549 NSCLC) greater than 100 µM, a GI50 (NCI-H23 lung) of 11.6 µM and a TGI (NCI-H23 lung) of 24.5 µM. For the same molecule, the GI50 (PC-3 prostate) was 20.5 µM, the TGI (PC-3 prostate) was 42.5 µM and the GI50 (COLO 205 colon) was 34.1 µM. The TGI (COLO 205 colon) was greater than 100 µM, the GI50 (MCF7 breast) was 10 µM and the TGI (MCF7 breast) was 26.9 µM. It also gave a GI50 (SNB-75 CNS) of 15.9 µM, a TGI (SNB-75 CNS) of 30.2 µM and a GI50 (UACC-62 melanoma) of 12 µM. The TGI (UACC-62 melanoma) was 24.5 µM.
